pIC50: −log10 of the molar value. “Also recorded” adds a separate entry of the source. Like-named read-outs stand apart in the source and are kept apart here.
Experiments:
LnCap cells [1] = assay type: cell-based, human
LnCap cells [2] = assay type: cell-based, human; remark: listed apart in the source
LnCap cells [3] = details: LnCap AR with residue 877 threonine to alanine mutation; cited from earlier work
[4] = biological target: T1, rhARLBD (ligand binding domain of the rhesus monkey AR) (Macaca mulatta, UniProt Q6QT55); experiment: Hydroxyapatite (HAP)-based 3H-R1881 displacement binding assay using rhARLBD expressed in yeast
T1 construct: includes amino acids 601 to 895 of the rhesus monkey AR; made in house; host or cells: yeast (pESP-1 vector, Stratagene)
T1 sequence (Q6QT55 601-895): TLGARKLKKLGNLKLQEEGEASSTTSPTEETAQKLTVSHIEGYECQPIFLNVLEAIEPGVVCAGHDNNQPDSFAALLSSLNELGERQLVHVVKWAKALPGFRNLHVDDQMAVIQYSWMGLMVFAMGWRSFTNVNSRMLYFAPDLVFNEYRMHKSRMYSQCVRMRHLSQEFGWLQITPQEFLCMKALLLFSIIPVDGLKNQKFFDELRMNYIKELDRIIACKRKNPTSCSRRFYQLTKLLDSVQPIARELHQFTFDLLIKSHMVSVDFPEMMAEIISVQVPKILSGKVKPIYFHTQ
Source text: The screening assays were set up to use the ARLBD from Macaca mulatta (rhesus monkey; herein after rhARLBD) expressed in yeast. […] A medium to high throughput AR binding assay for screening analyte libraries and characterizing various analytes therein was also developed.
Cloning the full length rhesus monkey AR from rhesus monkey prostrate mRNA and subsequent subcloning of the rhARLBD was done as described in WO02090529 to Towler and Chen. Briefly, the rhARLBD was PCR amplified from the full rhesus monkey AR and inserted in frame with GST at a SmaI site of the pESP-1 clone. This placed the rhARLBD downstream of the GST-flag tag.
Cell lysates comprising the rhARLBD were prepared as follows. GST-Flag-rhARLBD (Mr=60 kDa) fusion protein was expressed in yeast using the pESP-1 vector (Stratagene, La Jolla, Calif.) according to the manufacturer's protocol. After a sufficient time to express the GST-Flag-rhARLBD the yeast were centrifuged and the yeast pellet resuspended in TGEM/DTT/PI buffer (10 mM Tris-HCl, pH 7.4, 1 mM EDTA, 10% glycerol, 10 mM molybdate, 2 mM dithiothreitol (DTT), 50 μL yeast protease inhibitor cocktail (PI, Sigma Chemicals, St. Louis, Mo.) per gram of yeast and 1/10×^th volume of PI complete (PI: Boehringer-Mannheim, Roche Applied Science, Indianapolis, Ind.) per gram of yeast. The yeast cells were lysed by vortexing in the presence of glass beads in cold TGEM/DTT/PI buffer. The cell debris was centrifuged at 10,000×g for 20 minutes at 4° C. The clear supernatant fraction containing the rhARLBD was the lysate used for the assays. Usually, about 25 to 50 μL of lysate as determined by titration was used per assay. In some cases, the rhARLBD fusion protein was purified from the lysate using a batch purification method using anti-Flag M2 affinity gel (Sigma) in TEGM/DTT buffer. The rhARLBD fusion protein was eluted using TEGM/DTT buffer containing 100 μg/mL Flag peptide.
Hydroxyapatite (HAP)-based binding assays were performed as follows: For the hydroxyapatite assays, the amount of lysate used was based on titration using ^3H-ligand at concentration about the Kd value of the ligand to the corresponding receptor. In general, the assay was carried at in 150 μL of TEGM buffer. […] The samples were vortexed and incubated on ice for about 10 minutes. […] The washing process transfers the HAP pellets containing ligand-bound-expressed receptor to [sequence]-96 GF/B (Packard Instruments Co.) which has been prewetted in 0.5% polyethylimine. The HAP pellets on the filter plates were incubated with 50 μL of MICROSCINT (Packard Instruments Co.) for 2 hours before counted on the TOPCOUNT (Packard Instruments Co.). […] The binding reactions were incubated for about 18 hours at 4° C. and process as above).

[5] = biological target: T2, LnCap AR (residue 877 threonine to alanine) (Homo sapiens, UniProt P10275, T878A); details: LnCap AR expression vector; cited from earlier work
T2 sequence (P10275 1-920 T878A): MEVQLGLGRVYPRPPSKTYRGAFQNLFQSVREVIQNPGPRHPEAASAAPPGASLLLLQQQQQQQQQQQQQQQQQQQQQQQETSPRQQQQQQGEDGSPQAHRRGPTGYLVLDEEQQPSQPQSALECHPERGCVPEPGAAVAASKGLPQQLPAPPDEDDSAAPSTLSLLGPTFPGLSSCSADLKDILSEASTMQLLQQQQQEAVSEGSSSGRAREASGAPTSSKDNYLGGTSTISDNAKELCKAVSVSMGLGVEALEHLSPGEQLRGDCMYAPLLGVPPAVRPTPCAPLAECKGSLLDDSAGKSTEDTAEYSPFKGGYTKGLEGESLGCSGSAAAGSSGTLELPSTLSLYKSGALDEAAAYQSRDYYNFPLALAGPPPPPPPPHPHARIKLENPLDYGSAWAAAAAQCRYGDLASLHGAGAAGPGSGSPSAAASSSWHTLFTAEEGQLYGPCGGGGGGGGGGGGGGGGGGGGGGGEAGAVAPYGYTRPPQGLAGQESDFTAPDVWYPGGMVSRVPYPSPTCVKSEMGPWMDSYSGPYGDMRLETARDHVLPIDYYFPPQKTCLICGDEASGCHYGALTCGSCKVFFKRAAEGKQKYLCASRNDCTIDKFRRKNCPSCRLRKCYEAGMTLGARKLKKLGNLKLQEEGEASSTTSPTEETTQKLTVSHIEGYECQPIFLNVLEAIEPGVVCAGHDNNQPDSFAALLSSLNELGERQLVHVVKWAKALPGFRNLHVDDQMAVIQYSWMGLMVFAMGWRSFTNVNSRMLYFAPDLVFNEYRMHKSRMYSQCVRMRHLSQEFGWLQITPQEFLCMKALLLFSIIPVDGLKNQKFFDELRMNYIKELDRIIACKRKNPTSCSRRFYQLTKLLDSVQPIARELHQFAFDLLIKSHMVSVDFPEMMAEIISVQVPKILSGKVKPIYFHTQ

| Structure (SMILES) | agonist activity, PSA production in LnCap cells (agonist mode) (LnCap cells [1]) | antagonist activity on PSA production in LnCap cells (antagonist mode) (LnCap cells [2]) | stimulation of LnCap cell growth through the AR (LnCap cells [3]) | also measured |
| --- | --- | --- | --- | --- |
| C[C@]12CC[C@H]3[C@@H](CCC4=C[C@@H](O)CC[C@@]43C)[C@@H]1CC[C@@H]2O [4-androstene-3β,17β-diol] | had agonist activity | antagonist activity; also recorded: antagonized the agonist activity of DHT and R1881 |  |  |
| CC(=O)[C@H]1CC[C@H]2[C@@H]3CCC4=CC(=O)CC[C@]4(C)[C@H]3CC[C@]12C [progesterone] |  |  | able to stimulate cell growth |  |
| C[C@]12CC[C@H](O)CC1=CC[C@@H]1[C@@H]2CC[C@]2(C)C(=O)CC[C@@H]12 [DHEA, dehydroepiandrosterone] | had agonist activity | antagonist activity; also recorded: antagonized the agonist activity of DHT and R1881 |  |  |
| C[C@]12CCC(=O)C=C1CC[C@@H]1[C@@H]2CC[C@]2(C)C(=O)CC[C@@H]12 [4-androstene-3,17β-dione] | had agonist activity | antagonist activity; also recorded: antagonized the agonist activity of DHT and R1881 |  | binding affinity to rhARLBD compared to full-length human AR ([4]; comparison of IC50s, rhARLBD (yeast lysate) vs full-length human AR (mdaAR), FIGS. 2A-2D, 3A-3D): reduced binding affinity |
| C[C@]12CCC(=O)C[C@@H]1CC[C@@H]1[C@@H]2CC[C@]2(C)[C@@H](O)CC[C@@H]12 [DHT, 5-α-dihydrotestosterone] | full agonist activity; also recorded: had agonist activity | full agonist activity |  |  |
| CC(O)(CS(=O)(=O)c1ccc(F)cc1)C(=O)Nc1ccc(C#N)c(C(F)(F)F)c1 (stereo not shown) [CASODEX] | full antagonist | antagonist activity | retains its antagonism |  |
| C[C@]1(O)CC[C@H]2[C@@H]3CCC4=CC(=O)CCC4=C3C=C[C@@]21C [R1881, 17 β-hydroxy-17-methyl-estra-4,9,11-trien-3-one] | slightly less potent than DHT; also recorded: had agonist activity | does not antagonize |  | pIC50 [4]: ~9.00; binding affinity to rhARLBD compared to full-length human AR [4]: same binding affinity; also recorded: no significant shift |
| CC(C)(O)C(=O)Nc1ccc([N+](=O)[O-])c(C(F)(F)F)c1 [hydroxyflutamide] |  |  | able to stimulate cell growth | effect on the androgen promoter in receptor/reporter cotransfection [5]: agonist effect |
| CC(=O)O[C@]1(C(C)=O)CC[C@H]2[C@@H]3C=C(Cl)C4=CC(=O)[C@@H]5C[C@@H]5[C@]4(C)[C@H]3CC[C@@]21C [CPA, cyproterone acetate] | had agonist activity | antagonist activity; also recorded: antagonized the agonist activity of DHT and R1881 | able to stimulate cell growth |  |

— patent publication US20070141636A1 (priority 2003, published 2007)
